In patent US20240285571A1, “METHODS OF TREATING BONE INFECTIONS” (MICROBION CORPORATION, priority 2020, published 2024) one finds MIC data, which are given here for two compounds.

Common to all, as to assay type: cell-based
The test system of one assay is Escherichia coli. The assay can be described thus: Broth microdilution MIC (Example 6). The conditions noted are these: Escherichia coli, read-out: MIC. As for the experimental part: (§1) Test Compounds: The test agents BisEDT (MB-1-B3; Lot No. ED268-1-11-01), MB-2B, and MB-6 were stored at room temperature, in the dark, until assayed.
(§2) For testing daptomycin, calcium was supplemented with […] Ca^2+, resulting in a final concentration of […] Ca^2+ (2, 3).
(§3) MIC Assay Procedure: MIC values were determined using a broth microdilution procedure described by CLSI (2, 3).
(§4) The Biomek 2000 was then used to make 2-fold serial dilutions in the mother plates from column 1 through column 11. The wells of column 12 contained no drug and served as the organism growth control wells for the assay.
(§5) The test panels were prepared on the Biomek FX instrument which transferred 2 μL of drug solution from each well of a mother plate to the corresponding well of each daughter plate in a single step.
(§6) A standardized inoculum of each test organism was prepared per CLSI methods to equal a 0.5 McFarland standard, followed by a dilution of 1:20. The plates were then inoculated with 10 μL of the diluted inoculum using the Biomek 2000 from low to high drug concentration resulting in a final concentration of approximately 5×10^5 CFU/mL.
(§7) Plates were stacked 3-4 high, covered with a lid on the top plate, placed into plastic bags, and incubated at 35° C. for 16 to 20 hr (vancomycin was read for S. aureus after 24 hr incubation time). The MIC was recorded as the lowest concentration of drug that inhibited visible growth of the organism.

A further assay concerns Klebsiella pneumoniae. The assay can be described thus: Broth microdilution MIC (Example 6). The conditions noted are these: Klebsiella pneumoniae, read-out: MIC. On the procedure:
as §1, §2, §3, §4, §5, §6, §7

The next assay deals with Pseudomonas aeruginosa. The assay can be described thus: Broth microdilution MIC (Example 6). The conditions noted are these: Pseudomonas aeruginosa, read-out: MIC. As for the experimental part:
as §1, §2, §3, §4, §5, §6, §7

In a further assay the test system is Acinetobacter baumannii. Description: Broth microdilution MIC (Example 6). The conditions noted are these: Acinetobacter baumannii, read-out: MIC. The gist of the method:
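CLSI broth microdilution in cation-adjusted Mueller Hinton broth, test agents 0.06-64 μg/mL from DMSO stocks, inoculum approx. 5×10^5 CFU/mL. Incubation 35° C for 16–20 hr; MIC taken as lowest concentration inhibiting visible growth.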

Assay [1] has as its system relevant ATCC QC organisms. The assay can be described thus: Broth microdilution MIC, QC (Example 6). In a few lines:
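QC strains were tested per CLSI broth microdilution in cation-adjusted Mueller Hinton broth, with Ca2+ supplemented for daptomycin, at about 5×10^5 CFU/mL. Incubation was at 35° C for 16–20 hr, or 24 hr for vancomycin against S. aureus. The MIC was the lowest concentration inhibiting visible growth.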

Converted amounts (≈) assume the structure as drawn. Where two headings read alike, the source gives them in different places. Where only a bound is given, the exact number is not on record here.

With `NCC[C@H](O)C(=O)N[C@@H]1C[C@H](N)[C@@H](O[C@H]2O[C@H](CN)[C@@H](O)[C@H](O)[C@H]2O)[C@H](O)[C@H]1O[C@H]1O[C@H](CO)[C@@H](O)[C@H](N)[C@H]1O` [Amikacin], the MIC in the assay on Escherichia coli (ATCC35218, E. coli ATCC 35218, ESBL) is 1 µg/mL (≈ 1.71 µM); with Escherichia coli (ATCCBAA2471, E. coli ATCC BAA-2471, NDM), 64 µg/mL (≈ 109 µM); in the assay on Escherichia coli (E. coli CDC 114, ESBL/KPC) it was 1 µg/mL (≈ 1.71 µM); in the assay with Escherichia coli (E. coli CDC 118, ESBL/NDM), more than 64 µg/mL; in the assay with Escherichia coli (E. coli CDC 435, NDM) it was more than 64 µg/mL; in the assay on Escherichia coli (E. coli CDC 451, KPC), 4 µg/mL (≈ 6.83 µM). Also, the MIC was more than 64 µg/mL in the assay on Escherichia coli (E. coli CDC 503, ESBL/NDM); 0.5 µg/mL (≈ 0.854 µM) in the assay on Escherichia coli (E. coli MMX 5745, KPC); 16 µg/mL (≈ 27.3 µM) in the assay with Escherichia coli (E. coli MMX 5755, ESBL); 64 µg/mL (≈ 109 µM) in the assay with Escherichia coli (E. coli MMX 5756, ESBL); 1 µg/mL (≈ 1.71 µM) in the assay on Escherichia coli (E. coli MMX 5758, ESBL); 16 µg/mL (≈ 27.3 µM) in the assay with Klebsiella pneumoniae (ATCCBAA1705, K. pneumoniae ATCC BAA-1705, ESBL/KPC). Also, the MIC in the assay on Klebsiella pneumoniae (K. pneumoniae CDC 112, KPC) is 16 µg/mL (≈ 27.3 µM); with Klebsiella pneumoniae (K. pneumoniae CDC 113, ESBL/KPC), 16 µg/mL (≈ 27.3 µM); in the assay on Klebsiella pneumoniae (K. pneumoniae CDC 115, ESBL/KPC), 0.5 µg/mL (≈ 0.854 µM); with Klebsiella pneumoniae (K. pneumoniae CDC 120, ESBL/KPC), 16 µg/mL (≈ 27.3 µM); in the assay with Klebsiella pneumoniae (K. pneumoniae CDC 126, ESBL/KPC), 2 µg/mL (≈ 3.42 µM); in the assay with Klebsiella pneumoniae (K. pneumoniae CDC 129, ESBL/KPC), 32 µg/mL (≈ 54.6 µM). For the same compound, the MIC was 16 µg/mL (≈ 27.3 µM) in the assay on Klebsiella pneumoniae (K. pneumoniae CDC 135, ESBL/VIM); more than 64 µg/mL with Klebsiella pneumoniae (K. pneumoniae CDC 138, ESBL/NDM); 2 µg/mL (≈ 3.42 µM) in the assay with Klebsiella pneumoniae (K. pneumoniae CDC 158, ESBL/NDM/OXA); 0.5 µg/mL (≈ 0.854 µM) in the assay on Klebsiella pneumoniae (K. pneumoniae MMX 9029, ESBL); more than 64 µg/mL in the assay on Pseudomonas aeruginosa (P. aeruginosa isolate CDC 230, β-lactamase type VIM/OXA); 8 µg/mL (≈ 13.7 µM) in the assay with Pseudomonas aeruginosa (P. aeruginosa isolate CDC 231, β-lactamase type KPC/OXA). Further, the MIC in the assay on Pseudomonas aeruginosa (P. aeruginosa isolate CDC 241, β-lactamase type IMP/OXA) is 32 µg/mL (≈ 54.6 µM); in the assay on Pseudomonas aeruginosa (P. aeruginosa isolate CDC 246, β-lactamase type NDM/OXA) it was more than 64 µg/mL; in the assay with Pseudomonas aeruginosa (P. aeruginosa isolate CDC 250, β-lactamase type NDM/OXA), more than 64 µg/mL; with Pseudomonas aeruginosa (P. aeruginosa isolate CDC 356, β-lactamase type KPC) it was 2 µg/mL (≈ 3.42 µM); with Pseudomonas aeruginosa (P. aeruginosa isolate CDC 439, β-lactamase type IMP), more than 64 µg/mL; in the assay with Pseudomonas aeruginosa (P. aeruginosa isolate CDC 444, β-lactamase type VIM) it was more than 64 µg/mL. The MIC was 2 µg/mL (≈ 3.42 µM) in the assay on Pseudomonas aeruginosa (P. aeruginosa isolate CDC 457, β-lactamase type VIM); 2 µg/mL (≈ 3.42 µM) in the assay with Pseudomonas aeruginosa (P. aeruginosa isolate CDC 516, β-lactamase type KPC/AmpC); more than 64 µg/mL in the assay with Acinetobacter baumannii (A. baumannii isolate CDC 273, β-lactamase type ESBL/OXA); 16 µg/mL in the assay with Acinetobacter baumannii (A. baumannii isolate CDC 274, β-lactamase type ESBL/OXA); more than 64 µg/mL with Acinetobacter baumannii (A. baumannii isolate CDC 275, β-lactamase type ESBL/OXA); 16 µg/mL with Acinetobacter baumannii (A. baumannii isolate CDC 277, β-lactamase type ESBL/OXA). Moreover, the MIC with Acinetobacter baumannii (A. baumannii isolate CDC 284, β-lactamase type ESBL/OXA) was 32 µg/mL; with Acinetobacter baumannii (A. baumannii isolate CDC 307, β-lactamase type OXA), more than 64 µg/mL; with Acinetobacter baumannii (A. baumannii isolate CDC 308, β-lactamase type ESBL/OXA), more than 64 µg/mL; with Acinetobacter baumannii (A. baumannii isolate CDC 311, β-lactamase type OXA), more than 64 µg/mL; in the assay with Acinetobacter baumannii (A. baumannii isolate CDC 312, β-lactamase type OXA), 1 µg/mL; with Acinetobacter baumannii (A. baumannii isolate CDC 313, β-lactamase type ESBL/OXA), 4 µg/mL. Moreover, the MIC in the assay on Acinetobacter baumannii (NCTC13304, A. baumannii isolate NCTC 13304, β-lactamase type OXA) is 0.5 µg/mL; in assay [1] (Escherichia coli, ATCC25922, E. coli ATCC 25922, read-out: MIC) it was 1 µg/mL; in assay [1] (Escherichia coli, ATCC35218, E. coli ATCC 35218, read-out: MIC), 1 µg/mL; in assay [1] (Klebsiella pneumoniae, ATCCBAA1705, K. pneumoniae ATCC BAA-1705, read-out: MIC) it was 16 µg/mL; in assay [1] (Pseudomonas aeruginosa, ATCC27853, P. aeruginosa ATCC 27853, read-out: MIC), 2 µg/mL.

In the case of `CCC[C@@H]1C[C@@H](C(=O)N[C@@H]([C@H]2O[C@H](SC)[C@H](O)[C@@H](O)[C@H]2O)[C@H](C)Cl)N(C)C1` [CLI], the minimal inhibitory concentration (MIC) in assay [1] (S. aureus ATCC 29213) was determined as 0.25 µg/mL.
